{"source": "patent US9296818B2", "about": "“Cleavage inhibitors of transforming growth factor beta type I receptor and uses thereof in cancer therapy” (priority 2011, dated 2016)", "key": {"TβRI ICD": {"test_system": "TβRI ICD", "experiment": "Nuclear accumulation of TβRI ICD (immunofluorescence, nuclear fractionation)", "type": "cell-based, human", "procedure": "Before TGF-β1 stimulation, the cells were starved for 12-18 h in medium supplemented with 1% FBS. In all assays, the cells were stimulated with 10 ng/ml TGFβ1 (R&D System, UK).\n(§1) Protein-G Sepharose was obtained from GE Healthcare.; LumiLight Western blotting substrate and Pefabloc were from Roche, PageRuler prestained protein ladder was from Fermentas; and TAPI-2 was from BIOMOL Research Laboratories Inc. TAPI-2 was used at concentrations of 10-20 μM. The p38α/β inhibitor (SB203580) was purchased from Calbiochem (it was used at a concentration of 10 μM). PKCζ pseudosubstrate was from TOCRIS Bioscience and used at concentrations of 10-50 μM. The PKCζ activator, phorbol 12-myristate 13-acetate (PMA, referred to as TPA in our paper), and a TβRI inhibitor (SB505124) were purchased from Sigma. The SB505124 inhibitor was used at a concentration of 10 μM and the TPA at a concentration of 100 nM. The general PKCζ inhibitor, GF109203X, was purchased from Sigma. All inhibitors were added to cells 1 h before TGFβ stimulation.\nCells were starved for 12-18 h and then stimulated with TGFβ for the indicated time periods, washed twice in ice-cold PBS, and lysed in ice-cold lysis buffer (150 mM NaCl, 50 mM Tris pH 8.0, 0.5% (v/v) deoxycholate, 1% (v/v) NP40, 10% (v/v) glycerol, 1 mM aprotinin, 1 mM Pefabloc and 2 mM sodium orthovanadate). After centrifugation, supernatants were collected and protein concentrations were determined using the bicinchoninic acid (BCA) protein measurement kit (Nordic Biolabs). Equal volumes were subjected to immunoprecipitation. Equal amounts of protein from total cell lysates and immunoprecipitations were subjected to electrophoresis on 6%, 10%, 12%, or 4-12% gradient SDS-polyacrylamide gels (SDS-PAGE), blotted on to polyvinylidine difluoride membranes, and subjected to immunoblotting, as previously described.^23 The […] cell lysate from Santa Cruz was used as a positive control for TβRI. […]"}, "PKCζ": {"biological_target": "T1, PKCζ (Homo sapiens, UniProt Q05513)", "T1 construct": "Cell lysates from PC-3U cells treated with TGFβ or TPA were subjected to immunoblotting with an antiserum against pPKCζ; endogenous in cells; host or cells: PC-3U (human prostate cancer cell line)", "T1 sequence (Q05513 1-592)": "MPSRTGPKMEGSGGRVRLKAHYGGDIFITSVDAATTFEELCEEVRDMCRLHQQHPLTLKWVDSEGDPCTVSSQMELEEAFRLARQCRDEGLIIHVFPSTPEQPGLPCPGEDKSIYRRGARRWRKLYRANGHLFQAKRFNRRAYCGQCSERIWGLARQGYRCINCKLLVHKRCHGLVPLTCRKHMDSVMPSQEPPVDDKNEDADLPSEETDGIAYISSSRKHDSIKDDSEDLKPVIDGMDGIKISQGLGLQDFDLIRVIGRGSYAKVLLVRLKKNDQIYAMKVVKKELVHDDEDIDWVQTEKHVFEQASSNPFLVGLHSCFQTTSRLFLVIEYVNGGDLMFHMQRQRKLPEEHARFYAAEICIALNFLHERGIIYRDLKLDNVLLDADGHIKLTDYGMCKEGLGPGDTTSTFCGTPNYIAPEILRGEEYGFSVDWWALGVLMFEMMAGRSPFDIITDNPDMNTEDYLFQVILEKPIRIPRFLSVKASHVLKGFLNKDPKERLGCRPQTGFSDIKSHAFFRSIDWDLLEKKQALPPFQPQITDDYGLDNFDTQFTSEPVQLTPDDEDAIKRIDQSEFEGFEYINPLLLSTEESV", "experiment": "Activation of PKCζ (immunoblotting for p-PKCζ)", "type": "cell-based", "conditions": "PC-3U cells", "procedure": "Cells were starved for 12-18 h and then stimulated with TGFβ for the indicated time periods, washed twice in ice-cold PBS, and lysed in ice-cold lysis buffer (150 mM NaCl, 50 mM Tris pH 8.0, 0.5% (v/v) deoxycholate, 1% (v/v) NP40, 10% (v/v) glycerol, 1 mM aprotinin, 1 mM Pefabloc and 2 mM sodium orthovanadate). After centrifugation, supernatants were collected and protein concentrations were determined using the bicinchoninic acid (BCA) protein measurement kit (Nordic Biolabs). Equal volumes were subjected to immunoprecipitation. Equal amounts of protein from total cell lysates and immunoprecipitations were subjected to electrophoresis on 6%, 10%, 12%, or 4-12% gradient SDS-polyacrylamide gels (SDS-PAGE), blotted on to polyvinylidine difluoride membranes, and subjected to immunoblotting, as previously described.^23 The […] cell lysate from Santa Cruz was used as a positive control for TβRI. The ubiquitination assays, immunofluorescence assays, and transient transfections were performed as previously described.^5,23,24 Photomicrographs were obtained with a Zeiss 510 Meta (Carl Zeiss Microimaging, Inc.) equipped with a digital camera (RET-EXi-F-M-12-C) from Q-imaging."}, "PC-3U cells": {"test_system": "PC-3U cells", "experiment": "CytoSelect cell invasion assay, PC-3U", "type": "cell-based, human", "procedure": "(§2) Invasion assays were performed using the CytoSelect Cell Invasion Assay (Cell Biolabs, Inc., San Diego, Calif.). Briefly, the basement membrane layer of the cell culture inserts were rehydrated in 300 μl serum-free RPMI-1640 and 2×10^6 cells were seeded into the upper sections of the chambers in serum-free RPMI-1640 with or without TGFβ. The lower wells of the invasion plates were filled with 500 μl RPMI supplemented with 10% FBS. Non-invasive cells were removed from the upper chamber and invasive cells were stained with crystal violet cell stain solution. Invasive cells were photographed with a Leica DMR light microscope. Colorimetric quantification was performed by transferring inserts into 200 μl of extraction solution for 10 min and then, transferring to a 96-well microtiter plate. The OD at 560 nm was determined with a plate reader (Supplementary Information FIG. S5a).\nThe cancer cell invasion assay described in Example 1 above was performed to examine the ability of γ-secretase inhibitors in suppressing cancel cell invasion. Prostate cancers cells PC-3U, human lung carcinoma cells A549, and human breast carcinoma cells MDA-MB-231 were cultured following routine procedures, treated with TGFβ in the presence of absence of L-685,458, a γ-secretase inhibitor. Cells were visualized by staining with a crystal violet cell staining solution. […]"}, "A549 cells": {"test_system": "A549 cells", "experiment": "CytoSelect cell invasion assay, A549", "type": "cell-based, human", "procedure": "as §2\n(§3) The cancer cell invasion assay described in Example 1 above was performed to examine the ability of γ-secretase inhibitors in suppressing cancel cell invasion. Prostate cancers cells PC-3U, human lung carcinoma cells A549, and human breast carcinoma cells MDA-MB-231 were cultured following routine procedures, treated with TGFβ in the presence of absence of L-685,458, a γ-secretase inhibitor. Cells were visualized by staining with a crystal violet cell staining solution."}, "MDA-MB-231 cells": {"test_system": "MDA-MB-231 cells", "experiment": "CytoSelect cell invasion assay, MDA-MB-231", "type": "cell-based, human", "procedure": "as §2, §3"}, "TβRI": {"test_system": "TβRI", "experiment": "Formation of TβRI ICD (immunoblotting of cell lysates)", "type": "cell-based, human", "conditions": "PC-3U cells", "procedure": "as §1\nCells were starved for 12-18 h and then stimulated with TGFβ for the indicated time periods, washed twice in ice-cold PBS, and lysed in ice-cold lysis buffer (150 mM NaCl, 50 mM Tris pH 8.0, 0.5% (v/v) deoxycholate, 1% (v/v) NP40, 10% (v/v) glycerol, 1 mM aprotinin, 1 mM Pefabloc and 2 mM sodium orthovanadate). After centrifugation, supernatants were collected and protein concentrations were determined using the bicinchoninic acid (BCA) protein measurement kit (Nordic Biolabs). Equal volumes were subjected to immunoprecipitation. […]"}}, "note": "“Also recorded” adds a separate entry of the source."}
{"molecule": "phorbol 12-myristate 13-acetate [TPA]", "values": [{"measurement": "ICD in the nuclear fraction", "setting": "TβRI ICD; HA-caTβRI-expressing PC-3U cells treated with TPA", "value": "accumulated in the nuclear fraction"}, {"measurement": "nuclear accumulation of endogenous TβRI ICD, immunofluorescence", "setting": "TβRI ICD; PC-3U cells treated with TPA alone, 6 h", "value": "led to nuclear accumulation"}, {"measurement": "activation of PKCζ (p-PKCζ)", "setting": "PKCζ", "value": "activated"}]}
{"molecule": "CC(C)C[C@H](NC(=O)[C@H](Cc1ccccc1)C[C@@H](O)[C@H](Cc1ccccc1)NC(=O)OC(C)(C)C)C(=O)N[C@@H](Cc1ccccc1)C(N)=O", "note": "[L-685,458]", "values": [{"measurement": "TGFβ-induced cancer cell invasion", "setting": "PC-3U cells", "value": "significantly suppressed"}, {"measurement": "TGFβ-induced cancer cell invasion", "setting": "A549 cells", "value": "significantly suppressed"}, {"measurement": "TGFβ-induced cancer cell invasion", "setting": "MDA-MB-231 cells", "value": "significantly suppressed"}]}
{"molecule": "Cc1cccc(-c2[nH]c(C(C)(C)C)nc2-c2ccc3c(c2)OCO3)n1", "note": "[SB505124]", "values": [{"measurement": "formation of the TβRI ICD", "setting": "TβRI", "value": "no major effect"}]}
{"molecule": "CC(C)C[C@H](CC(=O)NO)C(=O)N[C@H](C(=O)N[C@@H](C)C(=O)NCCN)C(C)(C)C", "note": "[TAPI-2]", "values": [{"measurement": "nuclear translocation/accumulation of TβRI ICD in response to TGFβ stimulation", "setting": "TβRI ICD; PC-3U cells, TGFβ, inhibitor added 1 h before TGFβ, V22 antibody", "value": "reduction; also recorded: partly prevented"}]}
